Reference: the supplement of paper PMC10307832

What follows are cell lines tested with C(C(=O)C(=O)O)Br [Bromopyruvate] + O=C(c1cc(Cc2n[nH]c(=O)c3ccccc23)ccc1F)N1CCN(C(=O)C2CC2)CC1 [Olaparib] (partner 8 µM) (assay: relative viability (nuclei count vs DMSO), 5 days (fraction); higher = more cells survive). Settings: first compound 31.62 µM.
Summary of the method: (§1)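 Relative viability was taken as the ratio of nuclei in treated wells to nuclei in vehicle wells. Lung cancer cell lines in 1536-well plates received compounds by pin tool one day after seeding, either one drug alone or a fixed anchor-drug dose plus five library-drug doses (not always all listed) in √10 steps. Nuclei were counted on 4× images after 5 days of treatment, and values are medians of duplicate plates.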

Row | Cell Line | relative viability
1 | NCI-H3122 | 0.586
2 | HOP-62 | 0.525
3 | HCC-44 | 0.938
4 | A549 | 0.356
5 | SW 900 | 0.8
6 | LU99A | 0.26
7 | BEN | 1.03
8 | HARA | 0.632
9 | NCI-H1648 | 1.11
10 | NCI-H2023 | 0.544
11 | NCI-H520 | 0.302
12 | SW 1573 | 0.358
13 | NCI-H1299 | 0.979
14 | CAL-12T | 0.725
15 | SK-LU-1 | 0.367
16 | NCI-H661 | 0.731

Same assay, conditions: first compound 100 µM

Row | Cell Line | relative viability
17 | NCI-H522 | 0.477
18 | NCI-H838 | 0.686
19 | NCI-H1650 | 0.567
20 | EBC-1 | 0.564
21 | NCI-H1703 | 0.502
22 | NCI-H2009 | 0.461
23 | NCI-H1993 | 1.02
24 | PC-14 | 0.205
25 | LCLC-103H | 0.809
26 | NCI-H596 | 0.782
27 | NCI-H2228 | 0.647
28 | EMC-BAC-2 | 0.458
29 | NCI-H2087 | 0.451
30 | Calu-6 | 0.417
31 | HCC-366 | 0.284
32 | NCI-H1666 | 0.716
33 | NCI-H647 | 0.532
34 | LK-2 | 0.717
35 | NCI-H2126 | 0.923
36 | NCI-H2342 | 0.344
37 | SK-MES-1 | 0.554
38 | H3255 | 0.571

Row | Cell Line | relative viability
39 | COR-L23 | 0.129
40 | COR-L 105 | 0.429
41 | IA-LM | 0.941
42 | LOU-NH91 | 1.01
43 | ChaGo-K-1 | 0.301
44 | NCI-H2170 | 0.56
45 | NCI-H3122 | 0.604
46 | HOP-62 | 0.157
47 | HCC-44 | 0.972
48 | A549 | 0.3
49 | SW 900 | 0.821
50 | LU99A | 0.134
51 | BEN | 0.99
52 | HARA | 0.738
53 | NCI-H1648 | 0.982
54 | NCI-H2023 | 0.551
55 | NCI-H520 | 0.264
56 | SW 1573 | 0.0623
57 | NCI-H1299 | 0.882
58 | CAL-12T | 0.65
59 | SK-LU-1 | 0.424
60 | NCI-H661 | 0.65

These cell lines were tested with CC(O)(CS(=O)(=O)c1ccc(F)cc1)C(=O)Nc1ccc(C#N)c(C(F)(F)F)c1 [Bicalutamide] + Nc1ncn([C@H]2C[C@H](O)[C@@H](CO)O2)c(=O)n1 [Decitabine] (partner 2 µM) in the same assay as above. Settings: first compound 0.08 µM.
Summary of the method: as §1

Row | Cell Line | relative viability
61 | NCI-H522 | 0.585
62 | NCI-H838 | 0.484
63 | NCI-H1650 | 0.452
64 | NCI-H2009 | 0.356
65 | NCI-H1993 | 0.678
66 | PC-14 | 0.243
67 | LCLC-103H | 0.714
68 | NCI-H596 | 0.975
69 | EMC-BAC-2 | 0.976
70 | NCI-H2087 | 0.295
71 | HCC-366 | 0.369
72 | NCI-H1666 | 0.724
73 | NCI-H647 | 0.601
74 | LK-2 | 0.345
75 | NCI-H2126 | 0.572
76 | NCI-H2342 | 0.742
77 | SK-MES-1 | 0.497
78 | H3255 | 0.601

Row | Cell Line | relative viability
79 | COR-L23 | 0.476
80 | COR-L 105 | 0.765
81 | LOU-NH91 | 0.769
82 | ChaGo-K-1 | 0.524
83 | NCI-H2170 | 0.442
84 | NCI-H3122 | 0.4
85 | HOP-62 | 0.25
86 | HCC-44 | 0.967
87 | A549 | 0.351
88 | SW 900 | 0.416
89 | LU99A | 0.96
90 | BEN | 0.736
91 | HARA | 0.632
92 | NCI-H2023 | 0.267
93 | NCI-H520 | 0.576
94 | SW 1573 | 0.664
95 | SK-LU-1 | 0.689
96 | NCI-H661 | 0.546

Same assay, conditions: first compound 0.253 µM

Row | Cell Line | relative viability
97 | NCI-H522 | 0.575
98 | NCI-H838 | 0.461
99 | NCI-H1650 | 0.369
100 | NCI-H2009 | 0.37
101 | NCI-H1993 | 0.514
102 | PC-14 | 0.182
103 | LCLC-103H | 0.717
104 | NCI-H596 | 1.02
105 | EMC-BAC-2 | 0.875
106 | NCI-H2087 | 0.237
107 | HCC-366 | 0.284
108 | NCI-H1666 | 0.706
109 | NCI-H647 | 0.328
110 | LK-2 | 0.238
111 | NCI-H2126 | 0.537
112 | NCI-H2342 | 0.717
113 | SK-MES-1 | 0.374
114 | H3255 | 0.571

Row | Cell Line | relative viability
115 | COR-L23 | 0.389
116 | COR-L 105 | 0.6
117 | LOU-NH91 | 0.817
118 | ChaGo-K-1 | 0.46
119 | NCI-H2170 | 0.441
120 | NCI-H3122 | 0.45
121 | HOP-62 | 0.2
122 | HCC-44 | 0.911
123 | A549 | 0.271
124 | SW 900 | 0.413
125 | LU99A | 0.896
126 | BEN | 0.658
127 | NCI-H2023 | 0.227
128 | NCI-H520 | 0.52
129 | SW 1573 | 0.457
130 | SK-LU-1 | 0.611
131 | NCI-H661 | 0.51

Same assay, conditions: first compound 0.8 µM

Row | Cell Line | relative viability
132 | NCI-H522 | 0.71
133 | NCI-H838 | 0.508
134 | NCI-H1650 | 0.45
135 | NCI-H2009 | 0.405
136 | NCI-H1993 | 0.647
137 | PC-14 | 0.239
138 | LCLC-103H | 0.717
139 | NCI-H596 | 1.09
140 | EMC-BAC-2 | 0.948
141 | NCI-H2087 | 0.302
142 | HCC-366 | 0.351
143 | NCI-H1666 | 0.767
144 | NCI-H647 | 0.34
145 | LK-2 | 0.329
146 | NCI-H2126 | 0.582
147 | NCI-H2342 | 0.756
148 | SK-MES-1 | 0.405
149 | H3255 | 0.668
150 | COR-L23 | 0.455
151 | COR-L 105 | 0.698
152 | LOU-NH91 | 0.83
153 | ChaGo-K-1 | 0.561
154 | NCI-H2170 | 0.515
155 | NCI-H3122 | 0.449
156 | HOP-62 | 0.241
157 | HCC-44 | 0.942
158 | A549 | 0.259
159 | SW 900 | 0.5
